test: Clearance study, liver microsomes (rats); settings: rat, pH 7.4

microsomal CLint at 1 μM [µL/min/mg] | SMILES
542 | Cc1ccsc1C1=Nc2cc(C(=O)NCc3cccs3)ccc2Sc2ccccc21 [drawing 1781]
60 | O=C(NN1CCCCC1)c1ccc2c(c1)N=C(c1ccc(Cl)cc1)c1ccccc1S2 [drawing 1676]
31 | O=C(NCc1cccc(Cl)c1)c1ccc2c(c1)N=C(c1ccc(F)cc1)c1ccccc1S2(=O)=O [drawing 1670]
171 | O=C(NCc1cccs1)c1ccc2c(c1)N=C(c1ccc(F)cc1)c1ccccc1S2 [drawing 1659]
65 | O=C(NCCc1cccnc1)c1ccc2c(c1)N=C(c1ccc(Cl)c(Cl)c1)c1ccccc1S2 [drawing 1668]
395 | Cc1ccsc1C1=Nc2cc(C(=O)NCc3ccco3)ccc2Sc2ccccc21 [drawing 1762]
113 | COc1ccc(C2=Nc3cc(C(=O)NCC(C)C)ccc3Sc3ccccc32)cc1 [drawing 1708]
186 | O=C(NN1CCCCCC1)c1ccc2c(c1)N=C(c1ccc(Cl)s1)c1ccccc1S2 [drawing 1687]
41 | CCCCNC(=O)c1ccc2c(c1)N=C(c1ccc(Cl)cc1)c1ccccc1[S+]2[O-] (stereo not drawn) [drawing 1736]
96 | O=C(NCCc1cccnc1)c1ccc2c(c1)N=C(c1ccc(Cl)s1)c1ccccc1S2 [drawing 1690]
97 | O=C(NCc1cccs1)c1ccc2c(c1)N=C(c1ccc(Cl)s1)c1ccccc1S2 [drawing 1723]
70 | O=C(NCc1cccnc1)c1ccc2c(c1)N=C(c1ccc(Br)cc1)c1ccccc1S2 [drawing 1728]
99 | O=C(NCc1cccs1)c1ccc2c(c1)N=C(c1cccc(Cl)c1)c1ccccc1S2 [drawing 1733]
98 | O=C(NCc1ccco1)c1ccc2c(c1)N=C(c1ccc(Cl)s1)c1ccccc1S2 [drawing 1656]
304 | Cc1ccsc1C1=Nc2cc(C(=O)NN3CCCCC3)ccc2Sc2ccccc21 [drawing 1730]
58 | O=C(NCc1cccc(Cl)c1)c1ccc2c(c1)N=C(c1ccc(Cl)cc1)c1ccccc1S2 [drawing 1725]
154 | O=C(NCCc1cccnc1)c1ccc2c(c1)N=C(c1cccc(Cl)c1)c1ccccc1S2 [drawing 1770]
56 | O=C(NCc1ccc(F)cc1)c1ccc2c(c1)N=C(c1ccc(Cl)cc1)c1ccccc1S2 [drawing 1741]
166 | O=C(NCc1cccs1)c1ccc2c(c1)N=C(c1cccc(F)c1)c1ccccc1S2 [drawing 1658]
225 | O=C(NCc1cccs1)c1ccc2c(c1)N=C(c1ccccc1F)c1ccccc1S2 [drawing 1744]
69 | O=C(NCc1ccccc1)c1ccc2c(c1)N=C(c1cccc(Br)c1)c1ccccc1S2
63 | CCCNC(=O)c1ccc2c(c1)N=C(c1ccc(Cl)cc1)c1ccccc1S2 [drawing 1691]
76 | O=C(NCc1cccs1)c1ccc2c(c1)N=C(c1ccc(Cl)cc1)c1ccccc1S2 [drawing 1735]
80 | CCCCNC(=O)c1ccc2c(c1)N=C(c1ccc(Cl)s1)c1ccccc1S2 [drawing 1669]
187 | O=C(NCc1cccnc1)c1ccc2c(c1)N=C(c1cccc(F)c1)c1ccccc1S2 [drawing 1742]
33 | O=C(NCc1cccnc1)c1ccc2c(c1)N=C(c1ccc(Cl)c(Cl)c1)c1ccccc1S2 [drawing 1664]

test: Clearance study, liver microsomes (mice); settings: mouse, pH 7.4

microsomal CLint at 1 μM [µL/min/mg] | SMILES
852 | Cc1ccsc1C1=Nc2cc(C(=O)NCc3cccs3)ccc2Sc2ccccc21 [drawing 1781]
126 | O=C(NN1CCCCC1)c1ccc2c(c1)N=C(c1ccc(Cl)cc1)c1ccccc1S2 [drawing 1676]
32 | O=C(NCc1cccc(Cl)c1)c1ccc2c(c1)N=C(c1ccc(F)cc1)c1ccccc1S2(=O)=O [drawing 1670]
171 | O=C(NCc1cccs1)c1ccc2c(c1)N=C(c1ccc(F)cc1)c1ccccc1S2 [drawing 1659]
82 | O=C(NCCc1cccnc1)c1ccc2c(c1)N=C(c1ccc(Cl)c(Cl)c1)c1ccccc1S2 [drawing 1668]
755 | Cc1ccsc1C1=Nc2cc(C(=O)NCc3ccco3)ccc2Sc2ccccc21 [drawing 1762]
218 | COc1ccc(C2=Nc3cc(C(=O)NCC(C)C)ccc3Sc3ccccc32)cc1 [drawing 1708]
360 | O=C(NN1CCCCCC1)c1ccc2c(c1)N=C(c1ccc(Cl)s1)c1ccccc1S2 [drawing 1687]
53 | CCCCNC(=O)c1ccc2c(c1)N=C(c1ccc(Cl)cc1)c1ccccc1[S+]2[O-] (stereo not drawn) [drawing 1736]
122 | O=C(NCCc1cccnc1)c1ccc2c(c1)N=C(c1ccc(Cl)s1)c1ccccc1S2 [drawing 1690]
184 | O=C(NCc1cccs1)c1ccc2c(c1)N=C(c1ccc(Cl)s1)c1ccccc1S2 [drawing 1723]
83 | O=C(NCc1cccnc1)c1ccc2c(c1)N=C(c1ccc(Br)cc1)c1ccccc1S2 [drawing 1728]
187 | O=C(NCc1cccs1)c1ccc2c(c1)N=C(c1cccc(Cl)c1)c1ccccc1S2 [drawing 1733]
127 | O=C(NCc1ccco1)c1ccc2c(c1)N=C(c1ccc(Cl)s1)c1ccccc1S2 [drawing 1656]
385 | Cc1ccsc1C1=Nc2cc(C(=O)NN3CCCCC3)ccc2Sc2ccccc21 [drawing 1730]
238 | O=C(NCc1cccc(Cl)c1)c1ccc2c(c1)N=C(c1ccc(Cl)cc1)c1ccccc1S2 [drawing 1725]
82 | O=C(NCCc1cccnc1)c1ccc2c(c1)N=C(c1cccc(Cl)c1)c1ccccc1S2 [drawing 1770]
130 | O=C(NCc1ccc(F)cc1)c1ccc2c(c1)N=C(c1ccc(Cl)cc1)c1ccccc1S2 [drawing 1741]
238 | O=C(NCc1cccs1)c1ccc2c(c1)N=C(c1cccc(F)c1)c1ccccc1S2 [drawing 1658]
386 | O=C(NCc1cccs1)c1ccc2c(c1)N=C(c1ccccc1F)c1ccccc1S2 [drawing 1744]
566 | O=C(NCc1ccccc1)c1ccc2c(c1)N=C(c1cccc(Br)c1)c1ccccc1S2
694 | CCCNC(=O)c1ccc2c(c1)N=C(c1ccc(Cl)cc1)c1ccccc1S2 [drawing 1691]
90 | O=C(NCc1cccs1)c1ccc2c(c1)N=C(c1ccc(Cl)cc1)c1ccccc1S2 [drawing 1735]
266 | CCCCNC(=O)c1ccc2c(c1)N=C(c1ccc(Cl)s1)c1ccccc1S2 [drawing 1669]
127 | O=C(NCc1cccnc1)c1ccc2c(c1)N=C(c1cccc(F)c1)c1ccccc1S2 [drawing 1742]
38 | O=C(NCc1cccnc1)c1ccc2c(c1)N=C(c1ccc(Cl)c(Cl)c1)c1ccccc1S2 [drawing 1664]

test: Clearance study, liver microsomes (human); settings: pH 7.4

microsomal CLint at 1 μM [µL/min/mg] | SMILES
227 | Cc1ccsc1C1=Nc2cc(C(=O)NCc3cccs3)ccc2Sc2ccccc21 [drawing 1781]
32 | O=C(NN1CCCCC1)c1ccc2c(c1)N=C(c1ccc(Cl)cc1)c1ccccc1S2 [drawing 1676]
32 | O=C(NCc1cccc(Cl)c1)c1ccc2c(c1)N=C(c1ccc(F)cc1)c1ccccc1S2(=O)=O [drawing 1670]
52 | O=C(NCc1cccs1)c1ccc2c(c1)N=C(c1ccc(F)cc1)c1ccccc1S2 [drawing 1659]
41 | O=C(NCCc1cccnc1)c1ccc2c(c1)N=C(c1ccc(Cl)c(Cl)c1)c1ccccc1S2 [drawing 1668]
155 | Cc1ccsc1C1=Nc2cc(C(=O)NCc3ccco3)ccc2Sc2ccccc21 [drawing 1762]
78 | COc1ccc(C2=Nc3cc(C(=O)NCC(C)C)ccc3Sc3ccccc32)cc1 [drawing 1708]
122 | O=C(NN1CCCCCC1)c1ccc2c(c1)N=C(c1ccc(Cl)s1)c1ccccc1S2 [drawing 1687]
31 | CCCCNC(=O)c1ccc2c(c1)N=C(c1ccc(Cl)cc1)c1ccccc1[S+]2[O-] (stereo not drawn) [drawing 1736]
238 | O=C(NCCc1cccnc1)c1ccc2c(c1)N=C(c1ccc(Cl)s1)c1ccccc1S2 [drawing 1690]
30 | O=C(NCc1cccs1)c1ccc2c(c1)N=C(c1ccc(Cl)s1)c1ccccc1S2 [drawing 1723]
39 | O=C(NCc1cccnc1)c1ccc2c(c1)N=C(c1ccc(Br)cc1)c1ccccc1S2 [drawing 1728]
32 | O=C(NCc1cccs1)c1ccc2c(c1)N=C(c1cccc(Cl)c1)c1ccccc1S2 [drawing 1733]
42 | O=C(NCc1ccco1)c1ccc2c(c1)N=C(c1ccc(Cl)s1)c1ccccc1S2 [drawing 1656]
50 | Cc1ccsc1C1=Nc2cc(C(=O)NN3CCCCC3)ccc2Sc2ccccc21 [drawing 1730]
9 | O=C(NCc1cccc(Cl)c1)c1ccc2c(c1)N=C(c1ccc(Cl)cc1)c1ccccc1S2 [drawing 1725]
130 | O=C(NCCc1cccnc1)c1ccc2c(c1)N=C(c1cccc(Cl)c1)c1ccccc1S2 [drawing 1770]
16 | O=C(NCc1ccc(F)cc1)c1ccc2c(c1)N=C(c1ccc(Cl)cc1)c1ccccc1S2 [drawing 1741]
56 | O=C(NCc1cccs1)c1ccc2c(c1)N=C(c1cccc(F)c1)c1ccccc1S2 [drawing 1658]
89 | O=C(NCc1cccs1)c1ccc2c(c1)N=C(c1ccccc1F)c1ccccc1S2 [drawing 1744]
4 | O=C(NCc1ccccc1)c1ccc2c(c1)N=C(c1cccc(Br)c1)c1ccccc1S2
15 | CCCNC(=O)c1ccc2c(c1)N=C(c1ccc(Cl)cc1)c1ccccc1S2 [drawing 1691]
17 | O=C(NCc1cccs1)c1ccc2c(c1)N=C(c1ccc(Cl)cc1)c1ccccc1S2 [drawing 1735]
32 | CCCCNC(=O)c1ccc2c(c1)N=C(c1ccc(Cl)s1)c1ccccc1S2 [drawing 1669]
73 | O=C(NCc1cccnc1)c1ccc2c(c1)N=C(c1cccc(F)c1)c1ccccc1S2 [drawing 1742]
19 | O=C(NCc1cccnc1)c1ccc2c(c1)N=C(c1ccc(Cl)c(Cl)c1)c1ccccc1S2 [drawing 1664]

Source: US20080090805A1, “CB-1 MODULATING COMPOUNDS AND THEIR USE” (ACADIA PHARMACEUTICALS INC., priority 2005, published 2008)
